Laboratory results taken from patent publication US7531575B2, “Method of modulating cellular activity and agents useful for same” (Eberhard-Karls-Universität Tübingin, priority 2002, dated 2009).

Columns and labels:
Format in all cases: cell-based, murine
iNOS [1] = assay: iNOS protein immunoblot, IFN-γ-stimulated N9 microglia; details: N9 cells, IFN-γ 200 u ml, 24 h, tranilast 300 μM
Method: Tranilast was a generous gift of Kissei Pharmaceuticals (Nagano, Japan). Murine recombinant IFN-γ was purchased from Boehringer (Mannheim, Germany). Dexamethasone (DEX) was obtained from Sigma (Deisenhofen, Germany). N9 murine microglial cells were a kind gift from P. Ricciardi-Castagnoli (Milano, Italy) (Righi, M., Mori, L., De Libero, G., Sironi, M., Biondi, A., Mantovani, A., Donini, S. D. and Ricciardi-Castagnoli, P. Eur J Immunol 19(8):1443-1448, 1989). The cells were cultured in Dulbecco's modified Eagle's medium (DMEM) supplemented with 10% foetal calf serum (FCS), 2 mM glutamine and penicillin ([…])/streptomycin (100 μg ml), and maintained at 37° C. in an atmosphere of 5% CO2. Viability was assessed by crystal violet staining.
For the preparation of whole cell lysates, the cells were rinsed in phosphate-buffered saline (PBS), harvested, centrifuged at 1200×g, lysed in 0.1 M TRIS-HCl (pH 7.2) containing 0.1% NP40, 0.1 mM EDTA and 5 μg ml PMSF for 40 min on ice, and centrifuged at 10,000×g for 10 min. Protein concentration was determined using Biorad reagents with photometric analysis. Proteins (20 μg lane) were separated by 10-12% SDS-PAGE and electroblotted on nitrocellulose. qual protein loading was controlled by Ponceau S staining. […]

iNOS mRNA = iNOS mRNA Northern blot, LPS-stimulated N9 microglia; details: N9 cells, LPS 10 μg/mL, TNL 300 μM pretreatment 1 hr
Excerpt: (§1) TNL was a generous gift of Kissei Pharmaceuticals, LPC (Escherichia coli, 0127:BS), phorbol 12-myristate 13-acetate (PMA) and dexamethasone (DEX) were obtained from Sigma, BAY 11-7082 (BAY), NF-κB SN50 inhibitory peptide (SN50), GF 109203X (GFX) and rottlerin (ROT) were purchased from Biomol. PD098059 (PD) was obtained from Calbiochem. Purified murine interferon-γ (IFN-γ) was purchased from Roche Diagnostics. N9 murine microglial cells were a kind gift from P. Ricciardi-Castagnoli (Righi, M. et al. 1989 supra). Cells were cultured in Dulbecco's modified Eagle's medium (DMEM) supplemented with 10% fetal calf serum (FCS), 2 mM glutamine, penicillin (100 unit/mL) and streptomycin (100 μg/mL) and maintained at 37° in an atmosphere of 5% CO2. Viability was assessed by crystal violet staining.
RNA was isolated using the RNeasy™ kit (Qiagen). Total RNA (10 μg) was separated on 1.2% agarose gels and blotted onto nylon membranes (Amersham). The filters were hybridized according to standard procedures with a ^32P-labeled murine cDNA probe for iNOS. For the generation of the iNOS probe, N9 cells were stimulated with IFN-γ (200 unit/mL) for 24 hr. […]

iNOS [2] = assay: iNOS protein immunoblot, LPS-stimulated N9 microglia; details: TNL 300 μM
Excerpt: as §1
For the preparation of whole cell lysates, the cells were lysed in 0.1 M Tris-HCl (pH 7.2) containing 0.1% NP40, 0.1 mM EDTA and 5 μg/mL phenylmethylsulphonyl fluoride. Twenty micrograms protein was separated by 10-12% SDS-PAGE and electroblotted on nitrocellulose membrane. Equal loading was controlled by Ponceau S staining. Immunodetection was performed using the following antibodies: anti-iNOS rabbit polyclonal antibody (1:1000, Cayman), antiphospho-IκBα mouse monoclonal antibody (1:1000), anti-PKCδ mouse monoclonal antibody (1:2000), antiphospho-MARCKS rabbit polyclonal antibody (1:1000), antiphospho-ERK-1/2, antiphospho-AKT, antiphospho-p38 mouse monoclonal antibodies (1:2000), anti-ERK-1/2, anti-AKT mouse monoclonal antibodies (1:500, all from Signal Transduction Laboratories). Bands were visualized using horseradish peroxidase-conjugated anti-rabbit IgG (1:4000 SantaCruz) or anti-mouse IgG (1:4000, Amersham).

NF-κB = NF-κB reporter assay, LPS-stimulated N9 microglia; details: N9 cells, LPS 10 μg/mL 4 hr, TNL pre-incubation 1 hr
Method: NF-κB reporter gene activity was assayed as previously described (Platten, M. et al. 2001 supra). Briefly, 8×10^3 cells/well were seeded in a 96-well plate and transfected with an NF-κB cis reporter gene plasmid (PathDetect No. 219077, Stratagene) encoding firefly luciferase using FuGene™ transfection reagent (Roche). pFC-MEKK (Stratagene) and pcDNA3 plasmids cotransfected with the reporter plasmid served as positive and negative controls. After freezing and thawing, the cells were lysed in 40 mM Tricine (pH 7.8) containing 50 mM NaCl, 2 mM EDTA, 1 mM MgSO4, 5 mM DTT and 1% Triton X-100. Lysates were assayed using Luciferase assay reagent (40 mM Tricine, pH 7.8, containing 10 mM MgSO4, 0.5 mM EDTA, 10 mM DTT, 0.5 mM coenzyme A, […] and 0.5 mM beetle luciferine). Luminescence was measured in LumiNunc™ plates (Nunc) in a LumimatPlus™ (EG&G Berthold). Values are expressed as relative light units (RLU).

p38 MAPK = assay: phospho-p38 immunoblot, LPS-stimulated N9 microglia; details: N9 cells, LPS 10 μg/mL 10 min, TNL pre-incubation 1 hr
Excerpt: as §1
For the preparation of whole cell lysates, the cells were lysed in 0.1 M Tris-HCl (pH 7.2) containing 0.1% NP40, 0.1 mM EDTA and 5 μg/mL phenylmethylsulphonyl fluoride. Twenty micrograms protein was separated by 10-12% SDS-PAGE and electroblotted on nitrocellulose membrane. Equal loading was controlled by Ponceau S staining. […]

Structure (SMILES): COc1ccc(/C=C/C(=O)Nc2ccccc2C(=O)O)cc1OC [tranilast, 2-[[3-(3,4-dimethoxyphenyl)-1-oxo-2-propenyl]amino]benzoic acid]
- IFN-γ-induced iNOS protein expression (iNOS [1]): greatly suppressed
- LPS induction of iNOS mRNA (iNOS mRNA; 4 and 8 hr): unaffected
- LPS induction of iNOS mRNA (iNOS mRNA; 16 hr): no further increase
- accumulation of iNOS protein after LPS (iNOS [2]; N9 cells, LPS 10 μg/mL): suppressed
- PMA superinduction of iNOS protein in LPS-stimulated cells (iNOS [2]; PMA 100 nM 15 min, LPS 10 μg/mL 24 hr): abolished
- LPS-mediated NF-κB reporter gene activity (NF-κB): did not suppress
- cellular phospho-p38 levels after LPS (p38 MAPK): did not alter
